The source of these data is ChEMBL document CHEMBL1201862, “PubChem BioAssay data set” (2004).

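Cultured in 96-well plates, cells were exposed to test compound for 48 hours across five concentrations. Here, GI50 denotes the concentration required for 50% inhibition of growth.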 Activity calls are given as the source filed them. Cut-off read from the data, not from the text of the source: active = GI50 up to about 1.1 µM and inactive = higher.

As usually defined, the GI50 is the concentration giving 50% growth inhibition.

What all share (assay): DTP human tumour cell line panel, 48 h
Experiment [1] concerns BT-549.
In experiment [2] the test system is HOP-18.
Experiment [3] deals with XF498.
Experiment [4] has as its system KM-20L2.
Experiment [5] concerns DMS-273.
Experiment [6] has as its system DLD-1.
The subject of experiment [7] is SNB-78.
Experiment [8] concerns LXFL 529.

In the case of `O=C(/C=C/c1ccc([N+](=O)[O-])cc1)c1nc2ccccc2[nH]1`, in experiment [1], the GI50 is > 62.8 µM (inactive).
`COc1ccc(/C=C/C(=O)Oc2ccc(/C=C3\CCCCC3=O)cc2)cc1`: the GI50 in experiment [1] is 72.3 µM (inactive).
Regarding `C[N+]1(CC[N+]2(C)CCCC2c2cccnc2)CCCC1c1cccnc1` (stereo not drawn), the GI50 in experiment [1] was > 100 µM (inactive).
On the same count and under the same terms, to `COc1cc(/C=C2/C[C@H]3[C@@H]4CC=C5C[C@@H](O)CC[C@]5(C)[C@H]4CC[C@]3(C)NC2=O)cc(OC)c1OC` belongs 15.2 µM (inactive); to `CCCc1nc(Cl)nc(Cl)c1Cl`, 0.0227 µM (active).
For `c1cc2c3c(c1)c1cc4c(cc1c[n+]3CC2)OCO4` [ANHYDROLYCORINIUM CHLORIDE], the GI50 in experiment [2] is 9.79 µM (inactive); in experiment [3], 4.14 µM (inactive); in experiment [4] it was 3.56 µM (inactive); in experiment [5], 4.42 µM (inactive); in experiment [6], 8.83 µM (inactive); in experiment [7], 4.06 µM (inactive).
As to `O=C1/C(=C/c2ccc3c(c2)CCC3)Cc2cc3c(cc21)CCC3`, the GI50 in experiment [1] was > 100 µM (inactive).
`COC(=O)C1=CO[C@@H](OC2CC(CO)C(O)C(O)C2O)[C@@H]2[C@@H](C)[C@@H](OC(=O)/C=C/c3ccccc3)[C@@H](O)[C@H]12.COC(=O)C1=CO[C@@H](OC2CC(CO)C(O)C(O)C2O)[C@@H]2[C@@H](C)[C@@H](OC(=O)c3ccccc3)[C@@H](O)[C@H]12` (stereo partly drawn): the GI50 in experiment [8], in experiment [2], in experiment [3], in experiment [4] and in experiment [6] was > 100 µM (inactive) in each case.
Consider `CC1(O)CC23CC(O)C4(O)C(CC(O)C4(C)C)C(C)(O)C2CCC1C3O` (stereo not drawn), for which, in experiment [1], the GI50 is > 100 µM (inactive).
In the case of `COc1ccc(NC2CC(C)N(C(=O)c3ccccc3)O2)cc1` (stereo not drawn), the GI50 in experiment [1] was 8.79 µM (inactive).
`C/C(=N\N=C(N)N)c1c(C(=O)OCCCCCCOC(=O)c2nc3sccn3c2/C(C)=N/N=C(N)N)nc2sccn12`: in experiment [1], the GI50 is > 100 µM (inactive).
On to `NN/C(=N\S(=O)(=O)c1cc2ccccc2o1)Nc1ccc(Cl)cc1`, for which the GI50 in experiment [1] is 57.7 µM (inactive).
The same measure, in the same setting: to `N#Cc1c(O)c(/N=N/c2ccc(Cl)cc2)c(=O)n2c1[nH]c1ccccc12` belongs 34.6 µM (inactive).
Take `CN1CCC23c4ccccc4NC1C21CCN(C)C3Nc2ccccc21`: the GI50 in experiment [2] was 343 µM (inactive); in experiment [4] it was > 239 µM (inactive); in experiment [5], > 375 µM (inactive); in experiment [6] it was > 375 µM (inactive); in experiment [7], 151 µM (inactive).
Take `Cn1c(NN)nc(-c2ccc([N+](=O)[O-])cc2)c(C#N)c1=O`: the GI50 in experiment [1] was 12.7 µM (inactive).
On the same count and under the same terms, in the case of `CC(=O)c1cc2ccccc2oc1=O` [3-ACETYLCOUMARIN] it was > 100 µM (inactive); in that of `NNC(=O)c1c(Cl)c(Cl)c(Cl)c(Cl)c1-c1nc2ccccc2[nH]1`, 14.9 µM (inactive); in that of `Cc1ccc2c(sc(-c3ccc4c(c3)sc(-c3ccc(N(C)C)cc3)[n+]4C)[n+]2C)c1S(=O)(=O)O.Cc1ccc2c(sc(-c3ccc4c(c3)sc(-c3ccc5c(c3)sc(-c3ccc(N(C)C)cc3)[n+]5C)[n+]4C)[n+]2C)c1S(=O)(=O)O`, 30.8 µM (inactive).
`O=P(NCCCO)(OCc1ccccc1)N(CCCl)CCCl` (stereo not drawn): the GI50 in experiment [2] was > 39.5 µM (inactive); in experiment [3], > 100 µM (inactive); in experiment [4] it was > 100 µM (inactive); in experiment [5] it was > 100 µM (inactive); in experiment [6], > 31.6 µM (inactive); in experiment [7], > 100 µM (inactive).
`CC(=O)NNc1nc(C)c(C(=O)NNC(=O)C(=O)Nc2c(C)cccc2C(C)C)s1`: the GI50 is 46.1 µM (inactive) in experiment [8]; > 100 µM (inactive) in experiment [3]; > 100 µM (inactive) in experiment [4]; > 100 µM (inactive) in experiment [5]; 27.9 µM (inactive) in experiment [7].
As for `Cc1cn([C@@H]2O[C@H](CO[Si](C)(C)C(C)(C)C)[C@]3(O[C@H]3C(=O)NN)[C@H]2O[Si](C)(C)C(C)(C)C)c(=O)[nH]c1=O`, in experiment [1], the GI50 is 5.38 µM (inactive).
On the same count and under the same terms, to `O=C(Nc1ccc(Cl)cc1)c1cc(S(=O)(=O)NC2=Nc3ccc(Cl)cc3C(c3ccccc3)N2)c(SSc2cc(Cl)c(C(=O)Nc3ccc(Cl)cc3)cc2S(=O)(=O)NC2=Nc3ccc(Cl)cc3C(c3ccccc3)N2)cc1Cl` (stereo not drawn) belongs > 100 µM (inactive).
The same measure, in the same setting: in the case of `C[C@]12C=CC(=O)C=C1CC[C@@H]1[C@@H]2CC[C@@]2(C)[C@H]1CC[C@]2(O)C(N)=O` it was > 100 µM (inactive).
Regarding `OC1(c2ccc3ccccc3c2)c2ccc3ccccc3c2C2=NCCN21` (stereo not drawn), the GI50 in experiment [1] is > 100 µM (inactive).
On the same count and under the same terms, in the case of `Cc1ccc2c3c1O[C@H]1c4nc5ccccc5cc4C[C@@]4(O)[C@@H](C2)N(CC2CC2)CC[C@]314` it was 11.2 µM (inactive).
As to `CC(NC(=O)c1ccccc1)NC(=O)C(C)C(=O)Nc1ccccc1` (stereo not drawn), the GI50 in experiment [1] was > 100 µM (inactive).
In the case of `CCCCCCCCCCCCCCCCCCOCC(O)CO` (stereo not drawn) [BATILOL], the 50% growth inhibitory concentration (GI50) is 0.61 µM (active) in experiment [2]; 15.5 µM (inactive) in experiment [3]; 19.1 µM (inactive) in experiment [4]; > 5.93 µM (inactive) in experiment [5]; > 25 µM (inactive) in experiment [6]; > 25 µM (inactive) in experiment [7].
Take `COc1cc(-c2cc(=O)c3cc4c(=O)cc(-c5cc(OC)c(OC)c(OC)c5)oc4cc3o2)cc(OC)c1OC`: the GI50 in experiment [1] is 17.5 µM (inactive).
Same read-out and setting: in the case of `C(=N\c1cc2cc(Sc3ccccc3)ccc2[nH]1)/c1ccccc1` it was > 12.5 µM (inactive); in that of `Clc1ccc(CSC2=NCCN2)cc1Cl`, 18.8 µM (inactive).
Regarding `CCOC(=O)c1ccn2c(c1)c(C#N)c1nc3ccccc3nc12`, the GI50 was 31.6 µM (inactive) in experiment [8]; 33.7 µM (inactive) in experiment [3]; 71.9 µM (inactive) in experiment [4]; 37.2 µM (inactive) in experiment [5]; 27.4 µM (inactive) in experiment [6]; 15.5 µM (inactive) in experiment [7].
Consider `Cc1ccc(S(=O)(=O)N/N=C2/C3CC4CCC2C4C3)cc1` (stereo not drawn), for which the GI50 in experiment [1] is > 100 µM (inactive).
The same measure, in the same setting: to `CC1OC(OC2C(OC3CCC4(C)C(CCC5(C)C4CC=C4C6CC(C)(C)CCC6(C(=O)O)CCC45C)C3(C)CO)OCC(O)C2O)C(O)C(O)C1O` (stereo not drawn) belongs 16.7 µM (inactive); to `COc1cc2c(cc1OC)C1Cc3ccccc3CCN1CC2` (stereo not drawn), > 100 µM (inactive).
With `CC(=O)OC1CC2C(C)(C)C(=O)C=C[C@]2(C)C2CCC3(C)C(=CC(=O)C3c3ccoc3)[C@]12C` (stereo partly drawn), the GI50 in experiment [8] is 24 µM (inactive); in experiment [2], 18.4 µM (inactive); in experiment [3] it was 25.8 µM (inactive); in experiment [4], 14.7 µM (inactive); in experiment [6], 12.4 µM (inactive); in experiment [7], 31.4 µM (inactive).
Consider `N#CC(=C1CCCCC1)c1nc2ccccc2o1`, for which, in experiment [1], the GI50 was 32.1 µM (inactive).
For the compound `O=C(COc1cc(=O)oc2ccccc12)c1ccccc1`, the GI50 in experiment [1] is 24.6 µM (inactive).
`COc1ccccc1NC(=O)C1=C(C)NC(C)=C(C(=O)Nc2ccccc2OC)C1c1ccc(N(C)C)cc1`: the GI50 was 25.4 µM (inactive) in experiment [8]; 12.1 µM (inactive) in experiment [3]; 23.7 µM (inactive) in experiment [4]; 17.9 µM (inactive) in experiment [6]; 27.1 µM (inactive) in experiment [7].
As to `Oc1ccccc1C(Sc1nc2ccccc2s1)Sc1nc2ccccc2s1`, the GI50 in experiment [1] was 56.4 µM (inactive).
On the same count and under the same terms, to `C=CCOc1ccc(C(/N=N\c2ccc(Cl)cc2)=N/NC(=O)c2ccccc2)cc1OC` belongs 20.4 µM (inactive).
As to `CC1(c2ccc[n+](Cc3ccccc3)c2)OCCO1`, the GI50 in experiment [8], in experiment [2], in experiment [4], in experiment [5], in experiment [6] and in experiment [7] was > 100 µM (inactive) in each case.
Take `COC(=O)/C=C1\CCCN1CCc1cc2c(cc1CC#N)OCO2`: the GI50 in experiment [1] was 52.6 µM (inactive).
Turning to `Cc1ccccc1NC(=O)c1c(C)oc2c1C(=O)c1ccccc1C2=O`, the GI50 in experiment [8] is 21.5 µM (inactive); in experiment [3] it was 32.2 µM (inactive); in experiment [4], 65.5 µM (inactive); in experiment [5] it was 42 µM (inactive); in experiment [6], 33 µM (inactive); in experiment [7], 1.86 µM (inactive).
Consider `CCOC(=O)Oc1ccc2[nH]c3c(C)cc(N)c(C)c3c2c1`, for which the GI50 in experiment [2], in experiment [3], in experiment [5], in experiment [6] and in experiment [7] was > 100 µM (inactive) each time.
As for `O=C(O)CC(Nc1ccccc1)C(=O)O` (stereo not drawn), the GI50 in experiment [1] is > 100 µM (inactive).
On the same count and under the same terms, in the case of `C=C1c2nc3ccccc3n2C=C(c2ccc(C)cc2)N1c1ccccc1` it was 7.78 µM (inactive); in that of `COc1ccc(C2=Nc3cc(C)c(C)cc3NC(c3ccccc3)C2)cc1` (stereo not drawn), > 100 µM (inactive).
On to `O=C(NC(=O)c1cn(CCN2CCNCC2)c(=O)[nH]c1=O)OCc1ccccc1`, for which the GI50 in experiment [8], in experiment [6] and in experiment [7] was > 100 µM (inactive) in each case.
With `COC(=O)C(=Cc1cc(OC)c(OC)c(OC)c1-c1cc2c(cc1C(C)=O)OCO2)C(=O)OC`, the GI50 in experiment [8] was 33.8 µM (inactive); in experiment [2], 52.6 µM (inactive); in experiment [3] it was 27.4 µM (inactive); in experiment [4], 34.3 µM (inactive); in experiment [5] it was 30.7 µM (inactive); in experiment [6] it was 26.1 µM (inactive).
Regarding `N#Cc1c(-c2ccc(Cl)cc2)cc(-c2ccc(Nc3ccnc4cc(Cl)ccc34)cc2)nc1N`, the GI50 in experiment [1] was > 100 µM (inactive).
The same measure, in the same setting: in the case of `COC(=O)C1(C)CCc2c(ccc3ccccc23)C1=O` (stereo not drawn) it was 27.1 µM (inactive); in that of `CCCCOc1ccc(S(=O)(=O)/N=C(\NN)Nc2ccc(Cl)cc2)cc1`, > 100 µM (inactive); in that of `COc1cc(/C=N/n2c(Cc3ccc(Cl)cc3)n[nH]c2=O)cc(OC)c1OC`, > 100 µM (inactive).
The same measure, in the same setting: in the case of `Oc1ccc2ccccc2c1/N=N/c1ccc(Cl)cc1` it was > 100 µM (inactive).
With `Cc1ccc(/N=N/c2c(C)nn(C(=O)CC(=O)Nc3ccc(Cl)cc3)c2C)cc1C`, the GI50 in experiment [1] is > 100 µM (inactive).
Same read-out and setting: in the case of `CC1=CC(=O)C(=CN2C(=O)/C(=C\c3cccnc3)NC2=S)C(=O)O1` it was > 100 µM (inactive).
